The record followed here is US10435388B2, “Selective inhibitors of clinically important mutants of the EGFR tyrosine kinase” (CS PHARMATECH LIMITED, priority 2016, dated 2019).

Test [1] addresses T1, INSR (Homo sapiens, UniProt P06213).
T1 construct: purchased CARNA BIOSCIENCE 08-142
Briefly: INSR inhibition assay (Caliper EZ Reader). Conditions: enzyme assay. In kind it is biochemical.

Test [2] has as its system NCI-H1975 cells (EGFR L858R/T790 double mutant). In words: H1975 inhibition assay (cell proliferation), Method A. The class given is cell-based. Conditions: cellular proliferation, NCI-H1975 cells, 72 h, CellTiter-Glo (Table 1); read-out: NCI-H1975 IC50 (nM) DM. (Cellular ATP, detected with luciferase, serves as a proxy for viable cell number.)
For test [3], the target named is EGFR_T790M/L858R (Homo sapiens, UniProt P00533, L858R/T790M). Briefly: Enzyme assay, IC50 for double-mutant EGFR (EGFR_T790M/L858R) (Caliper). The class given is biochemical. Conditions: enzyme phosphorylation assay; read-out: EGFR_L858R/T790 IC50. The procedure: Using the same technique as described in the previous paragraph, various mutated forms of the epidermal growth factor receptor may be isolated from appropriate cell lines which contain them. For example, the EGFR de1746-750 mutant protein may be extracted from PC-9 cells, and the L858R/T790M double mutant EGFR protein may be isolated from H1975 cells.
Determination of IC50 Values for Double-Mutant EGFR (EGFR_T790M/L858R)
Dilute all compounds to 500 μM stock solutions in 100% DMSO and make a serial of 4-fold dilution for 10 does. “Max” and “Min” control contain 100% DMSO. “Max” stands for […], “Min” stands for low control without compounds. Transfer 10 μl of compounds to 90 μl of 1× kinase base buffer to make intermediate dilution. […] Incubate at RT for 1 hr and 25 μl stop buffer to end up reaction. Collect conversion data from Caliper and conversion data from Caliper program. Fit the data in XLfit to obtain IC50 values.

pIC50: −log10 of the molar value. “And” between values parts separate entries of the source, which are not always exact repeats. Equal entries are not always repeated.

As usually defined, the IC50 is the concentration that gives 50% inhibition.

T1 sequence (P06213 989-1382 limits assumed): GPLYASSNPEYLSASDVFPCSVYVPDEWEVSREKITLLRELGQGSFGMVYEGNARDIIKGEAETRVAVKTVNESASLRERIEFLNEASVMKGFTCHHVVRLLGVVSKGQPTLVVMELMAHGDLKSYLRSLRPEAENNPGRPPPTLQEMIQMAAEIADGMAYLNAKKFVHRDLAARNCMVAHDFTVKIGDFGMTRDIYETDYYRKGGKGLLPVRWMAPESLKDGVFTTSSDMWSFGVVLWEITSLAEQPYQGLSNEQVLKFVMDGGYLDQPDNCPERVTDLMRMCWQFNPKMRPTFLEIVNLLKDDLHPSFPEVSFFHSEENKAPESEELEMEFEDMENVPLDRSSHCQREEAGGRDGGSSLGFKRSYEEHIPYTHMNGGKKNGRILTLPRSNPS
Sequence of EGFR_T790M/L858R (P00533 25-1210 T790M/L858R): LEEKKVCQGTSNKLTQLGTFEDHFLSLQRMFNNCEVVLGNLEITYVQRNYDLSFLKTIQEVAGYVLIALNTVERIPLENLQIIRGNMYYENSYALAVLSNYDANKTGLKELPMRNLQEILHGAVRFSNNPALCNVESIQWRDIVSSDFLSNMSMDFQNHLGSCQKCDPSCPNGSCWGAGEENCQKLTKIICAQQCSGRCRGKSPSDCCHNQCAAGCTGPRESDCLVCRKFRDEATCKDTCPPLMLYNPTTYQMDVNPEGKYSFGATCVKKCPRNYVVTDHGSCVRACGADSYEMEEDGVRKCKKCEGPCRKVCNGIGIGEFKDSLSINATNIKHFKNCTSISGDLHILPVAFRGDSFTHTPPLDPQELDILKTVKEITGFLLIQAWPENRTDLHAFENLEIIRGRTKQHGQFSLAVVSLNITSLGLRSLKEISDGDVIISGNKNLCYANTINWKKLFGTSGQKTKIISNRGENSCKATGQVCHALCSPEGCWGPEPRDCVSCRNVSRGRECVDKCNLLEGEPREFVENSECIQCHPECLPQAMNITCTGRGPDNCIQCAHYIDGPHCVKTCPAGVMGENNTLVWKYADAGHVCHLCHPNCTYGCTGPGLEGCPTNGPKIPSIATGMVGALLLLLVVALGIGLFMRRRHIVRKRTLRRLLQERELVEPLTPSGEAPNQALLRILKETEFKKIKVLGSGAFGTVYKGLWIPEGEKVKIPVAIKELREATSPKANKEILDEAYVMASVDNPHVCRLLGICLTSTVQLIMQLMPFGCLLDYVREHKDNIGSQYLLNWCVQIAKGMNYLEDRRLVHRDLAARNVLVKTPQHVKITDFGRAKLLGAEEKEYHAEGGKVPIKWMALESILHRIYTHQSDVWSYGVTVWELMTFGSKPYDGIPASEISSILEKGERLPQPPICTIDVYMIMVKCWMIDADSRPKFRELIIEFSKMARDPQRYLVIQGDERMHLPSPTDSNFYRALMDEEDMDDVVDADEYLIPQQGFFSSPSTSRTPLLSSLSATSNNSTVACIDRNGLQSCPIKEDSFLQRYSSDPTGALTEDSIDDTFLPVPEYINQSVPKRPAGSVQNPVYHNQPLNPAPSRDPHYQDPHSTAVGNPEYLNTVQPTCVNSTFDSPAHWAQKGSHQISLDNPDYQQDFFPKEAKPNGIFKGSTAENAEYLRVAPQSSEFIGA

As to `C=CC(=O)Nc1cc(Nc2nccc(-c3c[nH]c4ccccc34)n2)c(OC)cc1N(C)CCN(C)C` [AZD-5104], the 50% inhibitory concentration (IC50) in test [1] was 49.5 nM and 72.2 nM; in test [2], 2.2 nM. Further, the pIC50 in test [3] is 8.82.
